The test system of test [1] is PSN-1 (a pancreatic adenocarcinoma cell line). Nature of the test: MTS cytotoxicity assay, single agents and combinations. In kind it is cell-based. Conditions: Homo sapiens, PSN1, PSN-1, chemotherapeutic agent alone; read-out: EC50 concentration. The protocol:
(§1) An MTS reduction (MTS (3-(4,5-dimethylthiazol-2-yl)-5-(3-carboxymethoxyphenyl)-2-(4-sulfophenyl)-2H-tetrazolium) assay) was conducted to analyze the cytotoxic effect of sodium perborate tetrahydrate on lung, chordoma and pancreatic cells and normal cells. In this method, cell viability is determined via the activity of mitochondrial dehydrogenase enzyme, which reduces the tetrazolium dye MTS to its […] formazan (absorbance maximum of 490 nm in PBS).
(§2) Cells were counted and seeded in 96-well culture dishes. […] The positive control comprised 20% Dimethyl Sulfoxide and the negative control comprised complete growth media. Seeding densities were as follows: DMS114: 20.000 cells/well; MRC5: 5.000 cells/well; CH22: 2.000 cells/well; JHC7, UM-Chor1, MUG-Chor1, UCH1 and NPH: 5.000 cells/well; PSN1: 10.000 cells/well; BxPC3 and ASPC: 7.500 cells/well. The effect of sodium perborate tetrahydrate on cell viability was measured as follows. The cell culture medium was discarded and 100 μl of MTS solution (10% glucose solution and 1% MTS-PMS solution in PBS) was added into each well. After 1 hour incubation in a humidified incubator, an absorbance reading was taken to determine mitochondrial dehydrogenase activity and cell survival was calculated relative to the negative control.

In test [2] the test system is DMS114 cells (small cell lung cancer cells). Put plainly: MTS cytotoxicity assay. To be noted: DMS114. In kind it is cell-based. The protocol:
as §1, §2
A general note: Tetrazolium dyes change colour on reduction, which living cells bring about.

Values after ≈ are worked out from the molar mass of the structure shown.

As to `O=c1[nH]cc(F)c(=O)[nH]1` [5-Fluorouracil, reference compound], the EC50 in test [1] amounted to 13 µM.

In the case of `OB(O)O` [boric acid, reference compound], the EC50 in test [2] (Homo sapiens, DMS-114, read-out: EC50 (dose that kills 50% of cells)) was 1000 µg/mL (≈ 16.2 mM).

As for “sodium pentaborate pentahydrate [reference compound]”, the “EC50 (dose that kills 50% of cells)” value in test [2] is listed as 1,250 μg/mL.
